Bounds are passed on as bounds.

This experiment concerns the target mTOR/GbL/Raptor (mTORC1) (Homo sapiens, UniProt P42345). Kind of experiment: mTOR/GbL/Raptor (mTORC1) ELISA assay. In kind it is biochemical. Particulars: phosphorylation of 4E-BP1; 0.2 nM mTORC1, 10 μM ATP; read-out: IC50 in this assay (mTORC1 ELISA). The procedure, abridged:
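ELISA read-out: phospho-4E-BP1 captured on Ni-chelate plates and detected with anti-phospho antibody plus HRP-anti-IgG luminescence. The kinase step ran 120 min at ambient temperature with 0.2 nM human mTORC1, 10 µM ATP, 50 nM His-4E-BP1, 10 mM MnCl2, pH 7.2 HEPES.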
(In general: An ELISA detects its analyte on a solid surface through an enzyme-linked reagent.)
As a reminder, the IC50 is the midpoint of a concentration-inhibition curve. Take `Cc1ncnc(N2CCOc3ccc(-c4ccc5nc(N)sc5n4)cc3C2)c1Cc1ccc(F)cc1` [Example 140, 5-(4-{5-[(4-fluorophenyl)methyl]-6-methylpyrimidin-4-yl}-2,3,4,5-tetrahydro-1,4-benzoxazepin-7-yl)[1,3]thiazolo[5,4-b]pyridin-2-amine]: the IC50 lay in the range of 10 to 50 nM. Then `Cc1ncnc(N2CCOc3ccc(-c4ccc5nc(N)nn5c4)cc3C2)c1Cc1ccc(F)cc1` [Example 141, 6-(4-{5-[(4-fluorophenyl)methyl]-6-methylpyrimidin-4-yl}-2,3,4,5-tetrahydro-1,4-benzoxazepin-7-yl)[1,2,4]triazolo[1,5-a]pyridin-2-amine], with 10 to 50 nM. The same measure for `Cc1ncnc(N2CCOc3ccc(-c4cnc5nc[nH]c5c4)cc3C2)c1Cc1ccc(F)cc1` [Example 142, 4-{5-[(4-fluorophenyl)methyl]-6-methylpyrimidin-4-yl}-7-(1H-imidazo[4,5-b]pyridin-6-yl)-2,3,4,5-tetrahydro-1,4-benzoxazepine]: at most 10 nM; for `Cc1ncnc(N2CCOc3ccc(-c4ccc5nc(N)ncc5c4)cc3C2)c1Cc1ccc(F)cc1` [Example 143, 6-(4-{5-[(4-fluorophenyl)methyl]-6-methylpyrimidin-4-yl}-2,3,4,5-tetrahydro-1,4-benzoxazepin-7-yl)quinazolin-2-amine]: 10 to 50 nM; for `Cc1ncnc(N2CCOc3ccc(-c4cnc5nc(N)cn5c4)cc3C2)c1Cc1ccc(F)cc1` [Example 144, 6-(4-{5-[(4-fluorophenyl)methyl]-6-methylpyrimidin-4-yl}-2,3,4,5-tetrahydro-1,4-benzoxazepin-7-yl)imidazo[1,2-a]pyrimidin-2-amine]: 10 to 50 nM. In the case of `Cc1ncnc(N2CCOc3ccc(-c4ccc5nc(N)cn5c4)cc3C2)c1Cc1ccc(F)cc1` [Example 145, 6-(4-{5-[(4-fluorophenyl)methyl]-6-methylpyrimidin-4-yl}-2,3,4,5-tetrahydro-1,4-benzoxazepin-7-yl)imidazo[1,2-a]pyridin-2-amine], the half-maximal inhibitory concentration (IC50) was in the range of 10 to 50 nM.

Regarding `Cc1ncnc(N2CCOc3ccc(-c4ccn5nc(N)nc5c4)cc3C2)c1Cc1ccc(F)cc1` [Example 146, 7-(4-{5-[(4-fluorophenyl)methyl]-6-methylpyrimidin-4-yl}-2,3,4,5-tetrahydro-1,4-benzoxazepin-7-yl)[1,2,4]triazolo[1,5-a]pyridin-2-amine], the IC50 lay in the range of 10 to 50 nM. The same measure for `Cc1ncnc(N2CCOc3ccc(-c4ccc5sc(N)nc5c4)cc3C2)c1Cc1ccc(F)cc1` [Example 148, 5-(4-{5-[(4-fluorophenyl)methyl]-6-methylpyrimidin-4-yl}-2,3,4,5-tetrahydro-1,4-benzoxazepin-7-yl)-1,3-benzothiazol-2-amine]: at most 10 nM; for `Cc1ncnc(N2CCOc3ccc(-c4ccc(N)nn4)cc3C2)c1Cc1ccc(F)cc1` [Example 149, 6-(4-{5-[(4-fluorophenyl)methyl]-6-methylpyrimidin-4-yl}-2,3,4,5-tetrahydro-1,4-benzoxazepin-7-yl)pyridazin-3-amine]: 50 to 250 nM; for `Cc1ncnc(N2CCOc3ccc(-c4cncs4)cc3C2)c1Cc1ccc(F)cc1` [Example 150, 4-{5-[(4-fluorrophenyl)methyl]-6-methylpyrimidin-4-yl}-7-(1,3-thiazol-5-yl)-2,3,4,5-tetrahydro-1,4-benzoxazepine]: 50 to 250 nM. Then `Cc1ncnc(N2CCOc3ccc(-c4cnc(N)cn4)cc3C2)c1Cc1ccc(F)cc1` [Example 151, 5-(4-{5-[(4-fluorophenyl)methyl]-6-methylpyrimidin-4-yl}-2,3,4,5-tetrahydro-1,4-benzoxazepin-7-yl)pyrazin-2-amine], with 50 to 250 nM; and `Cc1ncc(-c2ccc3c(c2)CN(c2ncnc4c2CCC(C)(C)C4)CCO3)s1` [Example 152, 4-(7,7-dimethyl-5,6,7,8-tetrahydroquinoazlin-4-yl)-7-(2-methyl-1,3-thiazol-5-yl)-2,3,4,5-tetrahydro-1,4-benzoxazepine], with 250 to 1000 nM; and `Cc1ncnc(N2CCOc3ccc(-c4cnc(N)nc4)cc3C2)c1Cc1ccc(F)cc1` [Example 153, 5-(4-{5-[(4-fluorophenyl)methyl]-6-methylpyrimidin-4-yl}-2,3,4,5-tetrahydro-1,4-benzoxazepin-7-yl)pyrimidin-2-amine], with at most 10 nM.

As to `Cc1nc(N)sc1-c1ccc2c(c1)CN(c1ncnc(C)c1Cc1ccc(F)cc1)CCO2` [Example 154, 5-(4-{5-[(4-fluorophenyl)methyl]-6-methylpyrimidin-4-yl}-2,3,4,5-tetrahydro-1,4-benzoxazepin-7-yl)-4-methyl-1,3-thiazol-2-amine], the IC50 lay within 50 to 250 nM. Turning to `CNC(=O)c1ccc(-c2ccc3c(c2)CN(c2ncnc(C)c2Cc2ccc(F)cc2)CCO3)nc1` [Example 155, 6-(4-{5-[(4-fluorophenyl)methyl]-6-methylpyrimidin-4-yl}-2,3,4,5-tetrahydro-1,4-benzoxazepin-7-yl)-N-methylpyridine-3-carboxamide], the IC50 fell in the range of 250 to 1000 nM.

Turning to `Cc1nc(N)sc1-c1ccc2c(c1)CN(c1ncnc3c1CCC(C)(C)C3)CCO2` [Example 156, 5-[4-(7,7-dimethyl-5,6,7,8-tetrahydroquinazolin-4-yl)-2,3,4,5-tetrahydro-1,4-benzoxazepin-7-yl]-4-methyl-1,3-thiazol-2-amine], the half-inhibitory concentration (IC50) is 10 to 50 nM. Then `COc1cc2c(N3CCOc4ccc(-c5ccc6nc(C)[nH]c6c5)cc4C3)ncnc2cc1O` [Example 157, 4-[7-(2-methyl-1H-benzimidazol-6-yl)-2,3-dihydro-1,4-benzoxazepin-4(5H)-yl]-6-(methyloxy)quinazolin-7-ol], with 250 to 1000 nM.

Turning to `Cc1nc2ccc(-c3ccc4c(c3)CN(c3ncnc5ccc(O)cc35)CCO4)cc2[nH]1` [Example 158, 4-[7-(2-methyl-1H-benzimidazol-6-yl)-2,3-dihydro-1,4-benzoxazepin-4(5H)-yl]quinazolin-6-ol], the half-inhibitory concentration (IC50) is 10 to 50 nM.

On to `CCOc1ccc2ncnc(N3CCOc4ccc(-c5ccc6nc(C)[nH]c6c5)cc4C3)c2c1` [Example 159, 4-[6-(ethyloxy)quinazolin-4-yl]-7-(2-methyl-1H-benzimidazol-6-yl)-2,3,4,5-tetrahydro-1,4-benzoxazepine], for which the IC50 is 50 to 250 nM.

On to `Cc1nc2ccc(-c3ccc4c(c3)CN(c3ncnc5ccc(OCC#N)cc35)CCO4)cc2[nH]1` [Example 160, ({4-[7-(2-methyl-1H-benzimidazol-6-yl)-2,3-dihydro-1,4-benzoxazepin-4(5H)-yl]quinazolin-6-yl}oxy)acetonitrile], for which the concentration for half-maximal inhibition (IC50) was in the range of 250 to 1000 nM. The same measure for `Cc1nc2ccc(-c3ccc4c(c3)CN(c3ncnc5ccc(OCCCN(C)C)cc35)CCO4)cc2[nH]1` [Example 161, N,N-dimethyl-3-({4-[7-(2-methyl-1H-benzimidazol-6-yl)-2,3-dihydro-1,4-benzoxazepin-4(5H)-yl]quinazolin-6-yl}oxy)propan-1-amine]: 1000 to 2000 nM; for `CCCOc1ccc2ncnc(N3CCOc4ccc(-c5ccc6nc(C)[nH]c6c5)cc4C3)c2c1` [Example 162, 7-(2-methyl-1H-benzimidazol-6-yl)-4-[6-(propyloxy)quinazolin-4-yl]-2,3,4,5-tetrahydro-1,4-benzoxazepine]: 250 to 1000 nM; for `COCCOc1ccc2ncnc(N3CCOc4ccc(-c5ccc6nc(C)[nH]c6c5)cc4C3)c2c1` [Example 163, 7-(2-methyl-1H-benzimidazol-6-yl)-4-(6-{[2-(methyloxy)ethyl]oxy}quinazolin-4-yl)-2,3,4,5-tetrahydro-1,4-benzoxazepine]: at least 2000 nM. Then `COc1c(O)ccc2c(N3CCOc4ccc(-c5ccc6nc(C)[nH]c6c5)cc4C3)ncnc12` [Example 164, 4-[7-(2-methyl-1H-benzimidazol-6-yl)-2,3-dihydro-1,4-benzoxazepin-4-(5H)-yl]-8-(methyloxy)quinazolin-7-ol], with 250 to 1000 nM; and `COc1c(OCCN(C)C)ccc2c(N3CCOc4ccc(-c5ccc6nc(C)[nH]c6c5)cc4C3)ncnc12` [Example 165, N,N-dimethyl-2-({4-[7-(2-methyl-1H-benzimidazol-6-yl)-2,3-dihydro-1,4-benzoxazepin-4(5H)-yl]-8-(methyloxy)quinazolin-7-yl}oxy)ethanamine], with at least 2000 nM. With `COc1c(OCC(C)C)ccc2c(N3CCOc4ccc(-c5ccc6nc(C)[nH]c6c5)cc4C3)ncnc12` [Example 166, 7-(2-methyl-1H-benzimidazol-6-yl)-4-{8-(methyloxy)-7-[(2-methylpropyl)oxy]quinazolin-4-yl}-2,3,4,5-tetrahydro-1,4-benzoxazepine], the IC50 was in the range of 250 to 1000 nM. The same measure for `COc1c(OCc2ccc3ccccc3n2)ccc2c(N3CCOc4ccc(-c5ccc6nc(C)[nH]c6c5)cc4C3)ncnc12` [Example 167, 7-(2-methyl-1H-benzimidazol-6-yl)-4-{8-(methyloxy)-7-[(quinolin-2-ylmethyl)oxy]quinazolin-4-yl}-2,3,4,5-tetrahydro-1,4-benzoxazepine]: at least 2000 nM; for `COc1c(OCC2CC2)ccc2c(N3CCOc4ccc(-c5ccc6nc(C)[nH]c6c5)cc4C3)ncnc12` [Example 168, 4-{7-[(cyclopropylmethyl)oxy]-8-(methyloxy)quinazolin-4-yl}-7-(2-methyl-1H-benzimidazol-6-yl)-2,3,4,5-tetrahydro-1,4-benzoxazepine]: 250 to 1000 nM. The same measure for `Cc1nc2ncc(-c3ccc4c(c3)CN(c3ncncc3C)CCO4)cc2[nH]1` [Example 169, 7-(2-methyl-1H-imidazo[4,5-b]pyridin-6-yl)-4-(5-methylpyrimidin-4-yl)-2,3,4,5-tetrahydro-1,4-benzoxazepine]: 250 to 1000 nM. The same measure for `Cc1ncnc(N2CCOc3ccc(-c4ccc(C(N)=O)cc4)cc3C2)c1Cc1ccc(F)cc1` [Example 170, 4-(4-{5-[(4-fluorophenyl)methyl]-6-methylpyrimidin-4-yl}-2,3,4,5-tetrahydro-1,4-benzoxazepin-7-yl)benzamide]: at most 10 nM.

These data come from patent US8648066B2 (Exelixis, Inc., priority 2009, dated 2014).
